Measured values published in patent US20240217973A1, “IMIDAZOPYRIDINE COMPOUNDS AND USE THEREOF” (MEDSHINE DISCOVERY INC., priority 2021, published 2024).

Columns and labels:
[1] = Pharmacokinetic evaluation of compounds in mice; assay type: in vivo, CD-1 mice; settings: mouse, plasma, CD-1 male mice
Procedure: Experimental purpose: To test the in vivo pharmacokinetic data of compounds in CD-1 mice.
(§1) The compound was mixed with the solvent 5% DMSO/5% Solutol/90% H2O, vortexed and sonicated to prepare a 0.5 mg/mL clear solution. CD-1 male mice aged 7 to 10 weeks were selected, and administered the candidate compound solution intravenously. Whole blood was collected for a certain period of time, and plasma was prepared. The drug concentration was analyzed by LC-MS/MS method, and pharmacokinetic parameters were calculated by Phoenix WinNonlin software (Pharsight Company, USA).
as §1, with “orally.” for “intravenously.”

[2] = system: plasma proteins; assay: Plasma protein binding experiment (PPB), H; assay type: in vitro ADME, human; settings: 2 μM, 4 hours dialysis
Procedure: (§2) Experimental operation: 995 μL of blank plasma of each genus was taken, 5 μL of working solution of test compound (400 μM) or working solution of warfarin (400 μM) was added, so that the final concentrations of the test compound and warfarin in the plasma sample was 2 μM. The sample was mixed thoroughly. The final concentration of the organic phase DMSO was 0.5%; 50 μL of plasma samples of the test compound and warfarin were pipetted into the sample receiving plate (three parallels), and the corresponding volume of the corresponding blank plasma or buffer was immediately added so that the final volume of each sample well was 100 μL, with a volume ratio of 1:1 for plasma: dialysis buffer, and then 500 μL of stop solution was added to these samples, and these samples would be used as a T0 sample for the recovery and stability determination. […] All samples were analyzed by LC/MS/MS after protein precipitation, and the protein binding rate and recovery rate were calculated by the formula: % Unbound=100*F/T, % Bound=100−% Unbound, % Recovery 100*(F+T) T0 (where F was the peak area ratio of the compound in the dialysate after 4 hours of dialysis; T was the peak area ratio of the compound in the plasma after 4 hours of dialysis, and T0 was the peak area ratio of the compound in the plasma sample at zero time).

[3] = Pharmacokinetic evaluation of compounds in dogs; assay type: in vivo; settings: dog, plasma, beagle dogs
Procedure: Experimental purpose: To test the in vivo pharmacokinetic data of compounds in beagle dogs.
as §1, with “The beagle dogs” for “CD-1 male mice aged 7 to 10 weeks”, “were” for “were selected, and”, “calculated.” for “calculated by Phoenix WinNonlin software (Pharsight Company, USA).”
The compound was mixed with the solvent 5% DMSO/5% Solutol/90% H2O, vortexed and sonicated to prepare a 0.5 mg/mL clear solution. The beagle dogs were administered candidate compound solutions orally. Whole blood was collected for a certain period of time, and plasma was prepared. The drug concentration was analyzed by LC- MS/MS method, and pharmacokinetic parameters were calculated.

[4] = Hepatocyte metabolic stability experiment (HMS), R; assay type: in vitro ADME; settings: rat, R hepatocytes, read-out: HMS CLint(liver)
Procedure: (§3) Experimental operations: 198 μL of hepatocyte suspension (0.51×10^6 cells/mL) was added to the preheated incubation plate, and 198 μL of culture medium without hepatocytes was added to T0-MC and T120-MC incubation plates for the culture medium control group, and all incubation plates were pre-incubated for 10 minutes in a 37° C. incubator. Then 2 μL of the working solution of the test and control compounds were added and mixed well, and the incubation plate was immediately put into the plate shaker in the incubator, the rotation speed was adjusted to about 650 rpm, and the timer and the reaction were started. 2 duplicate samples for each compound were prepared at each time point. Incubation conditions: 37° C., saturated humidity, and containing 5% CO2. In the test system, the final concentration of the test compound was 1 μM, the final concentration of the control compound was 3 μM, the final concentration of hepatocytes was 0.5×10^6 cells/mL, and the final concentration of the total organic solvent was 0.96%, of which the final concentration of DMSO was 0.1%. […] All samples were mixed and analyzed by LC-MS/MS method. […]

[5] = system: plasma proteins; assay: Plasma protein binding experiment (PPB), M; assay type: in vitro ADME, mouse; settings: 2 μM, 4 hours dialysis
Procedure: as §2

[6] = Hepatocyte metabolic stability experiment (HMS), D; assay type: in vitro ADME; settings: dog, D hepatocytes, read-out: HMS CLint(liver)
Procedure: as §3

[7] = IV, 1.0 mg/kg (002), 1.2 mg/kg (003B)
[8] = PO, 2.9 mg/kg (002), 2.85 mg/kg (003B)
[9] = IV, 0.49 mg/kg (002), 0.5 mg/kg (003B)

AUC(0-inf) [1, 7]: 0.697 µM·h
C0 [1, 7]: 4190 nM
Vd [1, 7]: 0.76 L/kg
clearance [1, 7]: 49 mL/min/kg
half-life [1, 7]: 16.8 min
AUC(0-inf) [1, 8]: 0.83 µM·h
Cmax [1, 8]: 1190 nM
Tmax [1, 8]: 4.98 min
bioavailability [1, 8]: 39.7%
half-life [1, 8]: 21 min
Unbound PPB [2]: 8.2%
AUC(0-inf) [3, 9]: 0.684 µM·h
C0 [3, 9]: 1710 nM
Vd [3, 9]: 1.5 L/kg
clearance [3, 9]: 25.6 mL/min/kg
half-life [3, 9]: 58.2 min
AUC(0-inf) ([3]; PO, 2.0 mg/kg): 2.25 µM·h
Cmax ([3]; PO, 2.0 mg/kg): 1140 nM
Tmax ([3]; PO, 2.0 mg/kg): 30 min
bioavailability ([3]; PO, 2.0 mg/kg): 82.2%
half-life ([3]; PO, 2.0 mg/kg): 42.6 min
CLint scaled at 1 μM [4]: 171 mL/min/kg
Unbound PPB [5]: 4.5%
CLint scaled at 1 μM [6]: 187 mL/min/kg
Compound: Nc1nccc2c1n(-c1ccc(Oc3ccccc3)cc1)c(=O)n2[C@@H]1CCCN(C(=O)/C=C/CF)C1 [Compound 002]
